Data reported in US20210251269A1, “Beverages Comprising Highly Soluble Steviol Glycoside Blend and Glucosylated Steviol Glycosides” (The Coca-Cola Company, priority 2018, published 2021).

Experiments:
[1] = Sensory evaluation of beverages by expert panelists; assay type: in vivo; settings: 480 ppm steviol glycosides in finished beverage; at least 5 expert panelists, blind; carbonated beverages tasted at 4° C.
Experimental: Steviol glycosides with high purity (>95%) namely Rebaudioside A, B, D, M, Glycosylated steviol glycoside (GSG) were evaluated in acidified citric buffer, a lemon lime and a cola carbonated beverage at concentration of 480 ppm in finished beverage.
The beverages were evaluated blindly by at least 5 expert panelists who work and taste steviol glycosides sweetened beverages daily. Samples were coded and randomly presented to the panelists. Panelists were instructed to eat an unsalted cracker and rinse the mouth with water before and in between samples. The maximum samples for each session was set at 5 samples to avoid fatigue. For each sample, panelists were instructed to take 3 sips, then write down their evaluation comments. Mock beverages were tasted at ambient temperature while carbonated beverages (diet lemon lime and cola) were tasted at 4° C.

[2] = Solubility at syrup stage (lemon lime and cola beverage syrup, 5.5+1); assay type: physicochemical
Experimental: The ingredients were dissolved in filtered water to constitute a syrup, then the final beverage was made by weighing the appropriate syrup amount and adding carbonated water using a ratio of 1-part syrup+5.5 parts carbonated water. Final beverages were filled in 300 ml glass bottles then aged for 3 days at 35° C. before they were cooled and served cold (4° C.). The control with Reb-M was made by heating water up to around 47° C. then dissolving Reb-M. After complete dissolution, the concentrated Reb-M solution was cooled down to ambient temperature before the rest of the ingredients were added.

[3] = cited from earlier work

Row | solubility at syrup stage [2] [%] | SMILES | Panelist Rating (1 = most preferred, 6 = least preferred) [1] | aqueous solubility [3]
1 | 0.1 | C=C1C[C@@]23CC[C@H]4[C@@](C)(CCC[C@@]4(C)C(=O)O[C@@H]4O[C@H](CO)[C@@H](O)[C@H](O[C@@H]5O[C@H](CO)[C@@H](O)[C@H](O)[C@H]5O)[C@H]4O[C@@H]4O[C@H](CO)[C@@H](O)[C@H](O)[C@H]4O)[C@@H]2CC[C@]1(O[C@@H]1O[C@H](CO)[C@@H](O)[C@H](O[C@@H]2O[C@H](CO)[C@@H](O)[C@H](O)[C@H]2O)[C@H]1O[C@@H]1O[C@H](CO)[C@@H](O)[C@H](O)[C@H]1O)C3 [Reb-M, Rebaudioside M] | 2 | –
2 | – | C=C1C[C@@]23CC[C@H]4[C@@](C)(CCC[C@@]4(C)C(=O)O[C@@H]4O[C@H](CO)[C@@H](O)[C@H](O)[C@H]4O)[C@@H]2CC[C@]1(O[C@@H]1O[C@H](CO)[C@@H](O)[C@H](O[C@@H]2O[C@H](CO)[C@@H](O)[C@H](O)[C@H]2O)[C@H]1O[C@@H]1O[C@H](CO)[C@@H](O)[C@H](O)[C@H]1O)C3 [Rebaudioside A] | – | about 0.8 wt %
